# Experimental data from PMC11062899, “De novo development of small cyclic peptides that are orally bioavailable” (Nature Chemical Biology, 2023).
# Values joined by “and” are separate entries in the source; they are usually repeats but may differ in a detail not shown here. Equal entries are not always repeated. Where two headings read alike, the source gives them in different places.
# Legend:
# [1] = Passive artificial membrane permeability (PAMPA)
# Experimental: The plate system consisted of a 96-well microwell plate (donor wells) and a 96-well insert containing a PVDF membrane coated with tri-layers of phospholipids (acceptor wells). Permeability was measured from the bottom plate (donor wells) to the top insert (acceptor wells). Cyclic peptide or reference compound solutions were prepared at a concentration of 50 μM in PBS buffer (pH 7.4) containing 5% DMSO, and 300 μl of the resulting solutions was placed into the donor wells of the PAMPA plate. Acceptor wells were prepared by adding 200 μl of PBS buffer (pH 7.4) containing 5% DMSO. The insert was stacked onto the donor plate, and the system was covered with a lid to avoid evaporation. […] Additionally, 3:2 dilutions of the 50 μM cyclic peptide stocks were prepared in PBS buffer (pH 7.4) containing 5% DMSO to yield a sample corresponding to the theoretical equilibrium between donor and acceptor wells. The samples were run on the LC–MS to measure the cyclic peptide concentration representing maximum permeability. Permeability percent was calculated using equation (4) below.4 Permeability%=PeptideAcceptor/PeptideEquilibrated×100 where [PeptideAcceptor] represents the AUC measured on the LC–MS for the acceptor wells, and [PeptideEquilibrated] represents the AUC measured for the samples diluted to the theoretical equilibrium. Detection limit for the assay was typically at 1% permeability.
# Papp values were calculated using equation (5).5 Papp=VD×VA/VD+VA×A×t×−ln1−PeptideAcceptor/PeptideEquilibrated where VD and VA are the volumes of donor and acceptor wells, respectively; A is the area of the membrane; and t is the incubation time.
# rat α-thrombin = target: T1, rat α-thrombin (Rattus norvegicus, UniProt P18292); assay: Protease inhibition, Ki for rat α-thrombin (fluorogenic substrate Z-Gly-Gly-Arg-AMC); format: biochemical; conditions: for Slope normalized to DMSO (proteolytic substrate cleavage over time) / Rat alpha thrombin inhibition, slope normalized to DMSO: replicates R1-R3
# T1 construct: rat α-thrombin (Molecular Innovations) were used at final concentrations of 2 nM and 3 nM; purchased Molecular Innovations
# Procedure, shortened: (§1)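 Ki derived through Cheng–Prusoff from IC50s (four-parameter logistic fit) against activity of peptide-free controls. Product fluorescence was read every 3 min over 30 min at 25 °C, substrate Z-Gly-Gly-Arg-AMC at 50 μM. Enzyme was 2 nM human or 3 nM rat α-thrombin, pH 7.4 buffer.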
# porcine pepsin = target: T2, porcine pepsin (Sus scrofa, UniProt P00791); assay: Peptide stability in simulated gastric fluid (SGF); format: in vitro ADME; parameters: remaining at 8 h: dose or concentration left out as unconfirmed; conditions: for remaining at 8 h: pH 1.2
# T2 construct: 0.32 g of porcine pepsin (Sigma-Aldrich, P7125) was dissolved under gentle agitation; purchased Sigma-Aldrich P7125
# Procedure, shortened: (§2)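 Peptide from a 1 mM DMSO stock was added to fluid pre-warmed at 37 °C. SGF was pH 1.2 NaCl with porcine pepsin (0.32 g per 100 ml), and SIF was pH 6.8 potassium phosphate with porcine pancreatin (1 g per 100 ml). Supernatant peptide was quantified by LC–MS, with residual expressed as T1/T0.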
# porcine pancreatin = assay: Peptide stability in simulated intestinal fluid (SIF); format: in vitro ADME; conditions: after 8 h vs 0 h (TIC); average of R1-R3
# Procedure, shortened: as §2
# [2] = as above; format: in vitro ADME, porcine; conditions: simulated gi fluid; 8 h, 37 °C, pH 6.8; read-out: Proteolytic stability: SIF (8 h) % remaining
# Procedure, shortened: as §2
# human α-thrombin = human α-thrombin (Homo sapiens, UniProt P00734); assay: Protease inhibition, Ki for human α-thrombin (fluorogenic substrate Z-Gly-Gly-Arg-AMC); format: biochemical; conditions: for Human alpha thrombin inhibition, slope normalized to DMSO: replicates R1-R3
# Procedure, shortened: as §1
# [3] = peptide 1.33E+02 uM, slope of proteolytic substrate cleavage over time
# T2 sequence (P00791 60-385): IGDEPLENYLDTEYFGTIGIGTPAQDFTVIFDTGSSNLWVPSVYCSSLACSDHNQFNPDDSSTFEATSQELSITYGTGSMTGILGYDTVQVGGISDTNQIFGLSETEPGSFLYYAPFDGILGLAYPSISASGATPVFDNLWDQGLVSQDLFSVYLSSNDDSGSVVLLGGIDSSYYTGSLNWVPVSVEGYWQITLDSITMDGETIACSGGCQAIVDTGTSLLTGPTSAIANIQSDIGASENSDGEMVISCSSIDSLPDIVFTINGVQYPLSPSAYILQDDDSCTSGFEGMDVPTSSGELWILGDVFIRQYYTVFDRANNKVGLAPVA
compound,measurement,setting,value
O=C1C[C@H]2CCCN2C(=O)[C@H](Cc2ccccc2)NC(=O)[C@@H](NC(=O)c2ccc(Cl)s2)CSCCS(=O)(=O)CCSCCN1 [peptide 11],PAMPA permeability: % permeability,"[1]; 50 μM, 12–18 h, acceptor concentration relative to equilibrium",1.23 ± 0.72%
same,Papp at 50 μM,"[1]; PAMPA, pH 7.4",0.0708 ×10⁻⁶ cm/s
same,Permeability% Average,"[1]; PAMPA, average of R1-R3",1.2%
same,Permeability% R1,"[1]; PAMPA, replicate R1, TIC of top well sample relative to sample at theoretical equilibrium",0.47%
same,Permeability% R3,"[1]; PAMPA, replicate R3, TIC of top well sample relative to sample at theoretical equilibrium",1.91%
same,Ki,"rat α-thrombin; average of R1-R3, read-out: Ki Average",36.8 nM
same,Slope normalized to DMSO (proteolytic substrate cleavage over time),rat α-thrombin; peptide 1.02E-03 uM,94.9 and 90.5 and 126.3
same,Slope normalized to DMSO (proteolytic substrate cleavage over time),rat α-thrombin; peptide 1.04E+00 uM,9.4 and 10.0 and 7.6
same,Slope normalized to DMSO (proteolytic substrate cleavage over time),rat α-thrombin; peptide 1.27E-04 uM,95.1 and 96.6 and 96.3
same,Slope normalized to DMSO (proteolytic substrate cleavage over time),rat α-thrombin; peptide 1.30E-01 uM,36.1 and 35.6 and 32.6
same,"Rat alpha thrombin inhibition, slope normalized to DMSO",rat α-thrombin; [3],7.9 and 5.3 and 6.2
same,Slope normalized to DMSO (proteolytic substrate cleavage over time),rat α-thrombin; peptide 1.63E-02 uM,78.2 and 76.9 and 78.3
same,"Rat alpha thrombin inhibition, slope normalized to DMSO",rat α-thrombin; peptide 1.67E+01 uM,4.9 and 5.1 and 4.0
same,Slope normalized to DMSO (proteolytic substrate cleavage over time),rat α-thrombin; peptide 2.03E-03 uM,89.6 and 92.6 and 90.5
same,"Rat alpha thrombin inhibition, slope normalized to DMSO",rat α-thrombin; peptide 2.08E+00 uM,5.8 and 4.5 and 4.3
same,Slope normalized to DMSO (proteolytic substrate cleavage over time),rat α-thrombin; peptide 2.54E-04 uM,95.9 and 93.5 and 98.7
same,Slope normalized to DMSO (proteolytic substrate cleavage over time),rat α-thrombin; peptide 2.60E-01 uM,24.9 and 24.5 and 24.7
same,Slope normalized to DMSO (proteolytic substrate cleavage over time),rat α-thrombin; peptide 3.18E-05 uM,97.8 and 96.7 and 99.3
same,Slope normalized to DMSO (proteolytic substrate cleavage over time),rat α-thrombin; peptide 3.26E-02 uM,68.3 and 65.8 and 66.5
same,"Rat alpha thrombin inhibition, slope normalized to DMSO",rat α-thrombin; peptide 3.33E+01 uM,4.3 and 4.0 and 4.9
same,Slope normalized to DMSO (proteolytic substrate cleavage over time),rat α-thrombin; peptide 4.07E-03 uM,90.1 and 88.8 and 91.4
same,"Rat alpha thrombin inhibition, slope normalized to DMSO",rat α-thrombin; peptide 4.17E+00 uM,4.1 and 2.6 and 2.8
same,Slope normalized to DMSO (proteolytic substrate cleavage over time),rat α-thrombin; peptide 5.09E-04 uM,95.0 and 94.4 and 95.5
same,Slope normalized to DMSO (proteolytic substrate cleavage over time),rat α-thrombin; peptide 5.21E-01 uM,15.5 and 14.5
same,Slope normalized to DMSO (proteolytic substrate cleavage over time),rat α-thrombin; peptide 6.36E-05 uM,97.1 and 98.7 and 90.6
same,Slope normalized to DMSO (proteolytic substrate cleavage over time),rat α-thrombin; peptide 6.51E-02 uM,52.7 and 50.7 and 50.5
same,"Rat alpha thrombin inhibition, slope normalized to DMSO",rat α-thrombin; peptide 6.67E+01 uM,3.6 and 3.0 and 1.8
same,Slope normalized to DMSO (proteolytic substrate cleavage over time),rat α-thrombin; peptide 8.14E-03 uM,84.4
same,"Rat alpha thrombin inhibition, slope normalized to DMSO",rat α-thrombin; peptide 8.33E+00 uM,4.9 (2×) and 4.3
same,IC50,"rat α-thrombin; single replicates R1-R3, read-out: IC50",71.7 nM and 68.3 nM and 59.7 nM
same,Ki,"rat α-thrombin; single replicates R1-R3, read-out: Ki",39.7 nM and 37.8 nM and 33 nM (2×)
same,"SGF stability, Residual peptide","porcine pepsin; after 8 h vs 0 h (TIC), single replicates R1-R3",36.24 and 43.40 and 29.72
same,remaining at 8 h,"porcine pepsin; pig, simulated gastric fluid (SGF, USP) with porcine pepsin, after 8 h vs 0 h (TIC), average of R1-R3, read-out: SGF stability, Residual peptide Average",36.5%
same,remaining at 8 h,"porcine pepsin; simulated gi fluid, 8 h, 37 °C, read-out: Proteolytic stability: SGF (8 h) % remaining",36 ± 7%
same,"SIF stability, Residual peptide Average",porcine pancreatin,14.00
same,remaining at 8 h,[2],14 ± 4.4%
same,IC50,"human α-thrombin; human alpha thrombin, individual replicates R1-R3, read-out: IC50",122 nM and 107 nM and 104 nM
same,Ki,"human α-thrombin; human alpha thrombin, individual replicates R1-R3, read-out: Ki",94.1 nM and 82.8 nM and 80.4 nM
same,Ki,"human α-thrombin; human alpha thrombin, average of R1-R3, read-out: Ki Average",85.8 nM
same,"Human alpha thrombin inhibition, slope normalized to DMSO",human α-thrombin; peptide 1.02E-03 uM,92.7 and 96.3 and 98.1
same,"Human alpha thrombin inhibition, slope normalized to DMSO",human α-thrombin; peptide 1.04E+00 uM,14.1 and 15.4 and 19.5
same,"Human alpha thrombin inhibition, slope normalized to DMSO",human α-thrombin; peptide 1.27E-04 uM,98.4 and 100.1 and 101.4
same,"Human alpha thrombin inhibition, slope normalized to DMSO",human α-thrombin; peptide 1.30E-01 uM,51.2 and 52.1 and 48.8
same,"Human alpha thrombin inhibition, slope normalized to DMSO",human α-thrombin; [3],8.1 and 8.7 and 9.0
same,"Human alpha thrombin inhibition, slope normalized to DMSO",human α-thrombin; peptide 1.63E-02 uM,87.3 and 78.8 and 85.1
same,"Human alpha thrombin inhibition, slope normalized to DMSO",human α-thrombin; peptide 1.67E+01 uM,9.8 and 9.6 and 8.8
same,"Human alpha thrombin inhibition, slope normalized to DMSO",human α-thrombin; peptide 2.03E-03 uM,100.0 and 90.9 and 98.1
same,"Human alpha thrombin inhibition, slope normalized to DMSO",human α-thrombin; peptide 2.08E+00 uM,10.6 and 11.3 and 7.9
same,"Human alpha thrombin inhibition, slope normalized to DMSO",human α-thrombin; peptide 2.54E-04 uM,99.0 and 98.6 and 98.3
same,"Human alpha thrombin inhibition, slope normalized to DMSO",human α-thrombin; peptide 2.60E-01 uM,38.3 and 36.0 and 36.6
same,"Human alpha thrombin inhibition, slope normalized to DMSO",human α-thrombin; peptide 3.18E-05 uM,100.0 and 103.6 and 101.9
same,"Human alpha thrombin inhibition, slope normalized to DMSO",human α-thrombin; peptide 3.26E-02 uM,77.4 and 76.3
same,"Human alpha thrombin inhibition, slope normalized to DMSO",human α-thrombin; peptide 3.33E+01 uM,8.8 and 8.2 and 6.8
same,"Human alpha thrombin inhibition, slope normalized to DMSO",human α-thrombin; peptide 4.07E-03 uM,95.6 and 92.2 and 94.3
same,"Human alpha thrombin inhibition, slope normalized to DMSO",human α-thrombin; peptide 4.17E+00 uM,-2.0 and 6.9 and 2.0
same,"Human alpha thrombin inhibition, slope normalized to DMSO",human α-thrombin; peptide 5.09E-04 uM,98.9 and 97.6 and 107.7
same,"Human alpha thrombin inhibition, slope normalized to DMSO",human α-thrombin; peptide 5.21E-01 uM,24.9 and 24.6 and 25.0
same,"Human alpha thrombin inhibition, slope normalized to DMSO",human α-thrombin; peptide 6.36E-05 uM,101.3 and 99.0 and 104.0
same,"Human alpha thrombin inhibition, slope normalized to DMSO",human α-thrombin; peptide 6.51E-02 uM,65.9 and 65.1 and 64.6
same,"Human alpha thrombin inhibition, slope normalized to DMSO",human α-thrombin; peptide 6.67E+01 uM,8.2 and 10.4 and 4.8
same,"Human alpha thrombin inhibition, slope normalized to DMSO",human α-thrombin; peptide 8.14E-03 uM,92.7 and 91.1 and 94.4
same,"Human alpha thrombin inhibition, slope normalized to DMSO",human α-thrombin; peptide 8.33E+00 uM,14.8 and 11.1
same,Ki,"human α-thrombin; purified peptide, mean and s.d. of three measurements, read-out: Ki human α-thrombin",82 ± 10 nM
same,Ki,"human α-thrombin; single replicates R1-R3, read-out: Ki (nM), human alpha thrombin inhibition",94.1 nM and 82.8 nM and 80.4 nM
